Source: patent US4684664A, “Derivatives of β-(4-isocyano-1,2,3,4-diepoxycyclopentyl) acrylic acid” (Kureha Kagaku Kogyo Kabushiki Kaisha, priority 1984, dated 1987)

Tests used:
Type in all cases: cell-based
[1] = tested on: Candida albicans IAM 4905; experiment: Antifungal activity, agar-dilution MIC, organism No. 29; settings: Candida albicans, IAM4905, read-out: Minimum Inhibitory Concentration
Method in brief: (§1)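 An agar-dilution procedure on bouillon-agar medium was applied, and each MIC was recorded as micrograms of specimen per ml of medium.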

[2] = tested on: Pseudomonas aeruginosa IFO 3445; experiment: Antibacterial activity, agar-dilution MIC, organism No. 15; settings: Pseudomonas aeruginosa, IFO3445, read-out: Minimum Inhibitory Concentration
Method in brief: as §1

[3] = tested on: Streptococcus faecium IFO 3826; experiment: Antibacterial activity, agar-dilution MIC, organism No. 27; settings: Enterococcus faecium, IFO3826, read-out: Minimum Inhibitory Concentration
Method in brief: as §1

[4] = tested on: Staphylococcus aureus MS 353; experiment: Antibacterial activity, agar-dilution MIC, organism No. 3; settings: Staphylococcus aureus, MS353, read-out: Minimum Inhibitory Concentration
Method in brief: as §1

[5] = tested on: Proteus mirabilis IFO 3849; experiment: Antibacterial activity, agar-dilution MIC, organism No. 19; settings: Proteus mirabilis, IFO3849, read-out: Minimum Inhibitory Concentration
Method in brief: as §1

[6] = tested on: Streptococcus pyogenes Cook; experiment: Antibacterial activity, agar-dilution MIC, organism No. 4; settings: Streptococcus pyogenes, read-out: Minimum Inhibitory Concentration
Method in brief: as §1

[7] = tested on: Salmonella typhimurium IID 971; experiment: Antibacterial activity, agar-dilution MIC, organism No. 8; settings: Salmonella enterica, read-out: Minimum Inhibitory Concentration
Method in brief: as §1

[8] = tested on: Enterobacter aerogenes ATCC 13048; experiment: Antibacterial activity, agar-dilution MIC, organism No. 23; settings: Klebsiella aerogenes, ATCC13048, read-out: Minimum Inhibitory Concentration
Method in brief: as §1

[9] = tested on: Bacillus subtilis ATCC 6633; experiment: Antibacterial activity, agar-dilution MIC, organism No. 14; settings: Bacillus subtilis, ATCC6633, read-out: Minimum Inhibitory Concentration
Method in brief: as §1

Salmonella typhi 901 = experiment: Antibacterial activity, agar-dilution MIC, organism No. 9; settings: Salmonella enterica, TYPHI, read-out: Minimum Inhibitory Concentration
Method in brief: as §1

[10] = tested on: Escherichia coli K12 C600 IAM 1264; experiment: Antibacterial activity, agar-dilution MIC, organism No. 6; settings: Escherichia coli, IAM1264, read-out: Minimum Inhibitory Concentration
Method in brief: as §1

[11] = tested on: Streptococcus pyogenes IFO 3340; experiment: Antibacterial activity, agar-dilution MIC, organism No. 26; settings: Streptococcus pyogenes, IFO3340, read-out: Minimum Inhibitory Concentration
Method in brief: as §1

[12] = tested on: Salmonella paratyphi-A 1015; experiment: Antibacterial activity, agar-dilution MIC, organism No. 10; settings: Salmonella enterica, PARATYPHI, read-out: Minimum Inhibitory Concentration
Method in brief: as §1

[13] = tested on: Staphylococcus aureus FDA 209PJc-1; experiment: Antibacterial activity, agar-dilution MIC, organism No. 1; settings: Staphylococcus aureus, FDA209PJC1, read-out: Minimum Inhibitory Concentration
Method in brief: as §1

[14] = tested on: Aspergillus niger IFO 6342; experiment: Antifungal activity, agar-dilution MIC, organism No. 30; settings: Aspergillus niger, IFO6342, read-out: Minimum Inhibitory Concentration
Method in brief: as §1

[15] = tested on: Serratia marcescens IAM 1184; experiment: Antibacterial activity, agar-dilution MIC, organism No. 13; settings: Serratia marcescens, IAM1184, read-out: Minimum Inhibitory Concentration
Excerpt: Agar-dilution method was used for determination of the antibacterial activity and antifungal activity while using bouillon-agar culture medium, and the minimum inhibitory concentration of the specimen was expressed by μg/ml of the culture medium.

[16] = tested on: Micrococcus luteus ATCC 9341; experiment: Antibacterial activity, agar-dilution MIC, organism No. 25; settings: Micrococcus luteus, ATCC9341, read-out: Minimum Inhibitory Concentration
Method in brief: as §1

[17] = tested on: Pseudomonas aeruginosa PAO 1; experiment: Antibacterial activity, agar-dilution MIC, organism No. 17; settings: Pseudomonas aeruginosa, PAO1, read-out: Minimum Inhibitory Concentration
Method in brief: as §1

[18] = tested on: Proteus morganii IFO 3848; experiment: Antibacterial activity, agar-dilution MIC, organism No. 18; settings: Morganella morganii, IFO3848, read-out: Minimum Inhibitory Concentration
Method in brief: as §1

[19] = tested on: Salmonella shottmuelleri 8006; experiment: Antibacterial activity, agar-dilution MIC, organism No. 11; settings: Salmonella, 8006, read-out: Minimum Inhibitory Concentration
Method in brief: as §1

[20] = tested on: Klebsiella pneumoniae PCI-602; experiment: Antibacterial activity, agar-dilution MIC, organism No. 7; settings: Klebsiella pneumoniae, PCI602, read-out: Minimum Inhibitory Concentration
Method in brief: as §1

[21] = tested on: Escherichia coli NIHJ-JC-2; experiment: Antibacterial activity, agar-dilution MIC, organism No. 5; settings: Escherichia coli, NIHJJC2, read-out: Minimum Inhibitory Concentration
Method in brief: as §1

[22] = tested on: Staphylococcus aureus Terajima; experiment: Antibacterial activity, agar-dilution MIC, organism No. 2; settings: Staphylococcus aureus, read-out: Minimum Inhibitory Concentration
Method in brief: as §1

[23] = tested on: Pseudomonas aeruginosa NCTC 10490; experiment: Antibacterial activity, agar-dilution MIC, organism No. 16; settings: Pseudomonas aeruginosa, NCTC10490, read-out: Minimum Inhibitory Concentration
Method in brief: as §1

Proteus vulgaris OX-19 = experiment: Antibacterial activity, agar-dilution MIC, organism No. 20; settings: Proteus vulgaris, OX19, read-out: Minimum Inhibitory Concentration
Method in brief: as §1

Enterobacter cloacae 963 = experiment: Antibacterial activity, agar-dilution MIC, organism No. 24; settings: Enterobacter cloacae, 963, read-out: Minimum Inhibitory Concentration
Method in brief: as §1

[24] = tested on: Salmonella enteritidis G 14; experiment: Antibacterial activity, agar-dilution MIC, organism No. 12; settings: Salmonella enterica, ENTERITIDIS, read-out: Minimum Inhibitory Concentration
Method in brief: as §1

Proteus vulgaris HX-19 = experiment: Antibacterial activity, agar-dilution MIC, organism No. 21; settings: Proteus vulgaris, HX19, read-out: Minimum Inhibitory Concentration
Method in brief: as §1

[25] = tested on: Proteus rettgeri IFO 3850; experiment: Antibacterial activity, agar-dilution MIC, organism No. 22; settings: Providencia rettgeri, IFO3850, read-out: Minimum Inhibitory Concentration
Method in brief: as §1

Measured: MIC

[C-]#[N+]C12CC3(/C=C/C(=O)Nc4ccc(O)cc4)OC3C1O2 (stereo not shown) [compound 56]
0.78 µg/mL: [16]
6.25 µg/mL: Salmonella typhi 901 | [22] | [24]
3.13 µg/mL: [11] | [12] | [19] | Proteus vulgaris OX-19 | [25]
50 µg/mL: [3] | [14] | [15]
25 µg/mL: [1] | [6] | [10] | [21]
1.56 µg/mL: [4] | [13] | [18] | [20] | Proteus vulgaris HX-19
200 µg/mL: Enterobacter cloacae 963
12.5 µg/mL: [5] | [7] | [9]
> 200 µg/mL: [2] | [8] | [17] | [23]

[C-]#[N+]C12CC3(/C=C/C(=O)NCCO)OC3C1O2 (stereo not shown) [compound 68]
200 µg/mL: [3] | [5] | [6] | [20] | [25]
3.13 µg/mL: [13]
12.5 µg/mL: [11] | [12] | Proteus vulgaris OX-19
6.25 µg/mL: [4] | Salmonella typhi 901 | [16] | [18] | [24] | Proteus vulgaris HX-19
100 µg/mL: [1] | [9] | [14] | [15]
25 µg/mL: [7] | [10] | [19] | [21] | [22]
> 200 µg/mL: [2] | [8] | [17] | [23] | Enterobacter cloacae 963
